{"source": "paper PMC10508830", "about": "(Antiviral research, 2023)", "key": {"[1]": {"molecular_target": "NA of A/Canada goose/Wyoming/22-011671-001/2022 (Influenza A virus, UniProt Q9Q0U7)", "type": "biochemical, influenza A(H5N1) virus", "settings": "read-out: Mean IC50 ± SD"}, "[2]": {"molecular_target": "NA of A/black vulture/Florida/22-012333-001/2022 (N/S295, T/N438, mixed population) (Influenza A virus (H5N1), UniProt Q9Q0U7)", "type": "biochemical", "settings": "read-out: Mean IC50 ± SD"}, "[3]": {"molecular_target": "NA of A/Illinois/45/2019 A(H1N1)pdm09 (Influenza A virus, UniProt A0A0X9QTS2)", "type": "biochemical", "settings": "read-out: Mean IC50 ± SD"}, "[4]": {"molecular_target": "NA of A/red-shouldered hawk/Minnesota/22-012000-004/2022 (Influenza A virus, UniProt Q9Q0U7)", "type": "biochemical", "settings": "read-out: Mean IC50 ± SD"}, "[5]": {"molecular_target": "NA of A/fox/Michigan/22-014536-004/2022 (del50-70) (Influenza A virus, UniProt Q9Q0U7)", "type": "biochemical, influenza A(H5N1) virus", "settings": "read-out: Mean IC50 ± SD"}, "[6]": {"molecular_target": "NA of A/black vulture/Maryland/22-012407-001/2022 (Influenza A virus (H5N1), UniProt Q9Q0U7)", "type": "biochemical", "settings": "read-out: Mean IC50 ± SD"}, "[7]": {"molecular_target": "NA of A/fox/Wisconsin/22-013774-002/2022 (Influenza A virus, UniProt Q9Q0U7)", "type": "biochemical", "settings": "read-out: Mean IC50 ± SD"}, "[8]": {"molecular_target": "NA of A/bald eagle/Florida/22-006544-004/2022 (Influenza A virus, UniProt Q9Q0U7)", "type": "biochemical", "settings": "read-out: Mean IC50 ± SD"}, "[9]": {"molecular_target": "NA of A/Cooper's hawk/Minnesota/22-012931-001/2022 (Influenza A virus, UniProt Q9Q0U7)", "type": "biochemical, influenza A(H5N1) virus", "settings": "read-out: Mean IC50 ± SD"}, "[10]": {"molecular_target": "NA of A/turkey/Iowa/22-012098-001/2022 (Influenza A virus, UniProt Q9Q0U7)", "type": "biochemical", "settings": "read-out: Mean IC50 ± SD"}, "[11]": {"tested_on": "A/black vulture/Florida/22-012331-001/2022", "test": "microbe, parasite or virus in culture", "type": "cell-based, influenza A(H5N1) virus", "settings": "Influenza A virus, read-out: Mean EC50 ± SD"}, "[12]": {"tested_on": "A/fox/Wisconsin/22-014746-030/2022", "test": "microbe, parasite or virus in culture", "type": "cell-based, influenza A(H5N1) virus", "settings": "Influenza A virus, read-out: Mean EC50 ± SD"}, "[13]": {"tested_on": "A/Illinois/08/2018 A(H1N1)pdm09", "test": "microbe, parasite or virus in culture", "type": "cell-based, influenza A(H1N1)pdm09 virus", "settings": "Influenza A virus, H1N1, read-out: Mean EC50 ± SD"}, "[14]": {"tested_on": "A/Louisiana/50/2017 A(H3N2)", "test": "microbe, parasite or virus in culture", "type": "cell-based", "settings": "Influenza A virus, H3N2, read-out: Mean EC50 ± SD"}, "[15]": {"tested_on": "A/Illinois/08/2018 A(H1N1)pdm09", "type": "cell-based, influenza A(H1N1)pdm09 virus", "settings": "read-out: Mean EC50 ± SD"}, "[16]": {"tested_on": "A/bald eagle/Florida/22-006544-004/2022", "test": "microbe, parasite or virus in culture", "type": "cell-based, influenza A(H5N1) virus", "settings": "Influenza A virus, read-out: Mean EC50 ± SD"}}, "note": "Read-outs that look alike come from different tables or passages of the source.", "data": [{"compound": "peramivir", "values": [{"measurement": "IC50", "setting": "[1]", "result": 0.08, "unit": "nM"}, {"measurement": "IC50", "setting": "[2]", "result": 0.55, "unit": "nM"}, {"measurement": "IC50", "setting": "[3]", "result": "0.06 ± 0.01", "unit": "nM"}, {"measurement": "IC50", "setting": "[4]", "result": 0.09, "unit": "nM"}, {"measurement": "IC50", "setting": "[5]", "result": 0.1, "unit": "nM"}, {"measurement": "IC50", "setting": "[6]", "result": 0.1, "unit": "nM"}, {"measurement": "IC50", "setting": "[7]", "result": 0.09, "unit": "nM"}, {"measurement": "IC50", "setting": "[8]", "result": 0.08, "unit": "nM"}, {"measurement": "IC50", "setting": "[9]", "result": 0.1, "unit": "nM"}, {"measurement": "IC50", "setting": "[10]", "result": 0.1, "unit": "nM"}]}, {"compound": "oseltamivir carboxylate", "values": [{"measurement": "IC50", "setting": "[3]", "result": "0.17 ± 0.03", "unit": "nM"}]}, {"compound": "O=C1c2c(O)c(=O)ccn2N([C@@H]2c3ccccc3SCc3c2ccc(F)c3F)[C@@H]2COCCN12", "note": "[Baloxavir, baloxavir acid]", "values": [{"measurement": "EC50", "setting": "[11]", "result": 0.44, "unit": "nM"}, {"measurement": "EC50", "setting": "[12]", "result": 0.32, "unit": "nM"}, {"measurement": "EC50", "setting": "[13]", "result": "1.65 ± 0.44", "unit": "nM"}, {"measurement": "EC50", "setting": "[14]", "result": "1.04 ± 0.43", "unit": "nM"}, {"measurement": "EC50", "setting": "[15]", "result": "1.12 ± 0.32", "unit": "nM"}, {"measurement": "EC50", "setting": "[16]", "result": 0.41, "unit": "nM"}]}]}
